{
  "source": "patent US6528093B1",
  "about": "“Sustained-release preparation” (Takeda Chemical Industries, Ltd., priority 1992, dated 2003)",
  "experiment": "Dissolution of peptide acetate in a dichloromethane solution of lactic acid-glycolic acid copolymer",
  "format": "physicochemical",
  "details": "8.0 g dichloromethane",
  "data": [
    {"smiles": "CCNC(=O)[C@@H]1CCCN1C(=O)[C@H](CCCNC(=N)N)NC(=O)[C@H](CC(C)C)NC(=O)[C@@H](CC(C)C)NC(=O)[C@H](Cc1ccc(O)cc1)NC(=O)[C@H](CO)NC(=O)[C@H](Cc1c[nH]c2ccccc12)NC(=O)[C@H](Cc1c[nH]cn1)NC(=O)[C@@H]1CCC(=O)N1", "note": "[Leuprorelin acetate]", "values": [
      {"measurement": "dissolution in copolymer/dichloromethane solution", "setting": "400 mg in 3.6 g lactic acid/glycolic acid=75/25 copolymer of Example 12 (GPC Mw 10,000, end-group Mn 4,300)", "value": "clear homogeneous solution"},
      {"measurement": "dissolution in copolymer/dichloromethane solution", "setting": "400 mg in 3.6 g lactic acid/glycolic acid=75/25 copolymer, GPC Mw 18,000, end-group Mn 30,000 (RG752-15057)", "value": "could not be successfully dissolved"}
    ]}
  ]
}
